Legend:
Format in all cases: in vivo
[1] = test system: ragweed (common ragweed, Ambrosia artemisiifolia); test: Test A postemergence, ragweed; details: Postemergence, 0 to 100 scale (0 no effect, 100 complete control); for Ragweed plant response rating: visual injury vs untreated controls after approx. 10 days
Excerpt: (§1) Seeds of plant species selected from barnyardgrass (Echinochloa crus-galli), kochia (Bassia scoparia), ragweed (common ragweed, Ambrosia artemisiifolia), Ryegrass, Italian (Italian ryegrass, Lolium multiflorum), Foxtail, Giant (giant foxtail, Setaria faberi), and pigweed (Amaranthus retroflexus) were planted into a blend of loam soil and sand and treated preemergence with a directed soil spray using test chemicals formulated in a non-phytotoxic solvent mixture which included a surfactant. At the same time, plants selected from these weed species and also wheat (Triticum aestivum), corn (Zea mays), blackgrass (Alopecurus myosuroides), and galium (catchweed bedstraw, Galium aparine) were planted in pots containing the same blend of loam soil and sand and treated with postemergence applications of test chemicals formulated in the same manner. Plants ranged in height from 2 to 10 cm and were in the one- to two-leaf stage for the postemergence treatment. […] A dash (-) response means no test result.

[2] = test system: barnyardgrass (Echinochloa crus-galli); test: Test A preemergence, barnyardgrass; details: Preemergence; for Barnyardgrass plant response rating: 125 g ai/ha, visual injury on 0 to 100 scale (0 no effect, 100 complete control), approximately 10 days; for Plant response rating, Barnyardgrass: 500 g ai/ha, 0 to 100 scale (0 no effect, 100 complete control)
Excerpt: as §1

[3] = test system: galium (catchweed bedstraw, Galium aparine); test: Test A postemergence, galium; details: Postemergence, 0 to 100 scale (0 no effect, 100 complete control); for Galium plant response rating: visual injury vs untreated controls after approx. 10 days
Excerpt: as §1

[4] = test system: Foxtail, Giant (giant foxtail, Setaria faberi); test: Test A preemergence, Foxtail, Giant; details: Preemergence; for Foxtail, Giant plant response rating: 125 g ai/ha, visual injury on 0 to 100 scale (0 no effect, 100 complete control), approximately 10 days; for Plant response rating, Foxtail, Giant: 500 g ai/ha, 0 to 100 scale (0 no effect, 100 complete control)
Excerpt: as §1

corn (Zea mays) = test: Test A postemergence, corn; details: Postemergence, 0 to 100 scale (0 no effect, 100 complete control); for Corn plant response rating: visual injury vs untreated controls after approx. 10 days
Excerpt: as §1

[5] = test system: ragweed (common ragweed, Ambrosia artemisiifolia); test: Test A preemergence, ragweed; details: Preemergence; for Ragweed plant response rating: 125 g ai/ha, visual injury on 0 to 100 scale (0 no effect, 100 complete control), approximately 10 days; for Plant response rating, Ragweed: 500 g ai/ha, 0 to 100 scale (0 no effect, 100 complete control)
Excerpt: as §1

kochia (Bassia scoparia) [6] = test: Test A preemergence, kochia; details: Preemergence; for Kochia plant response rating: 125 g ai/ha, visual injury on 0 to 100 scale (0 no effect, 100 complete control), approximately 10 days; for Plant response rating, Kochia: 500 g ai/ha, 0 to 100 scale (0 no effect, 100 complete control)
Excerpt: as §1

[7] = test system: Ryegrass, Italian (Italian ryegrass, Lolium multiflorum); test: Test A preemergence, Ryegrass, Italian; details: Preemergence; for Ryegrass, Italian plant response rating: 125 g ai/ha, visual injury on 0 to 100 scale (0 no effect, 100 complete control), approximately 10 days; for Plant response rating, Ryegrass, Italian: 500 g ai/ha, 0 to 100 scale (0 no effect, 100 complete control)
Excerpt: as §1

[8] = test system: wheat (Triticum aestivum); test: Test A postemergence, wheat; details: Postemergence, 0 to 100 scale (0 no effect, 100 complete control); for Wheat plant response rating: visual injury vs untreated controls after approx. 10 days
Excerpt: as §1

kochia (Bassia scoparia) [9] = test: Test A postemergence, kochia; details: Postemergence, 0 to 100 scale (0 no effect, 100 complete control); for Kochia plant response rating: visual injury vs untreated controls after approx. 10 days
Excerpt: as §1

[10] = test system: barnyardgrass (Echinochloa crus-galli); test: Test A postemergence, barnyardgrass; details: Postemergence, 0 to 100 scale (0 no effect, 100 complete control); for Barnyardgrass plant response rating: visual injury vs untreated controls after approx. 10 days
Excerpt: as §1

[11] = test system: Ryegrass, Italian (Italian ryegrass, Lolium multiflorum); test: Test A postemergence, Ryegrass, Italian; details: Postemergence, 0 to 100 scale (0 no effect, 100 complete control); for Ryegrass, Italian plant response rating: visual injury vs untreated controls after approx. 10 days
Excerpt: as §1

[12] = test system: pigweed (Amaranthus retroflexus); test: Test A postemergence, pigweed; details: Postemergence, 0 to 100 scale (0 no effect, 100 complete control); for Pigweed plant response rating: visual injury vs untreated controls after approx. 10 days
Excerpt: as §1

[13] = test system: blackgrass (Alopecurus myosuroides); test: Test A postemergence, blackgrass; details: Postemergence, 0 to 100 scale (0 no effect, 100 complete control); for Blackgrass plant response rating: visual injury vs untreated controls after approx. 10 days
Excerpt: as §1

[14] = test system: Foxtail, Giant (giant foxtail, Setaria faberi); test: Test A postemergence, Foxtail, Giant; details: Postemergence, 0 to 100 scale (0 no effect, 100 complete control); for Foxtail, Giant plant response rating: visual injury vs untreated controls after approx. 10 days
Excerpt: as §1

[15] = 125 g ai/ha, visual injury approx. 10 days
[16] = 500 g ai/ha, visual injury, approx. 10 days

Structure (SMILES) | Plant response rating, Ragweed [1, 15] | Barnyardgrass plant response rating [2] | Plant response rating, Barnyardgrass [2] | Plant response rating, Galium [3, 15] | Foxtail, Giant plant response rating [4] | Plant response rating, Foxtail, Giant [4] | Plant response rating, Corn (corn (Zea mays); [15]) | Ragweed plant response rating [5] | Plant response rating, Ragweed [5] | Kochia plant response rating (kochia (Bassia scoparia) [6]) | Plant response rating, Kochia (kochia (Bassia scoparia) [6]) | Ryegrass, Italian plant response rating [7] | Plant response rating, Ryegrass, Italian [7] | Plant response rating, Wheat [8, 15] | Plant response rating, Kochia (kochia (Bassia scoparia) [9]; [15]) | Plant response rating, Barnyardgrass [10, 15] | Plant response rating, Ryegrass, Italian [11, 15] | Plant response rating, Pigweed [12, 15] | Plant response rating, Blackgrass [13, 15] | Plant response rating, Foxtail, Giant [14, 15] | further results
CCc1cc(-c2cc(N(S(=O)(=O)C(F)(F)F)S(=O)(=O)C(F)(F)F)c(C)cc2C)c(=O)n(C)n1 [Compound 28] | 20 | 60 | 100 | 20 | 30 | 90 | 0 | 0 | 30 | 70 | 90 | 50 | 90 | 30 | 0 | 0 | 0 | 0 | 0 | 0 | Plant response rating, Ragweed [1, 16]: 80; Plant response rating, Galium [3, 16]: 70; Plant response rating, Corn (corn (Zea mays); [16]): 0; Plant response rating, Wheat [8, 16]: 50; Plant response rating, Kochia (kochia (Bassia scoparia) [9]; [16]): 30; Plant response rating, Barnyardgrass [10, 16]: 80; Plant response rating, Ryegrass, Italian [11, 16]: 0; Plant response rating, Pigweed [12, 16]: 40; Plant response rating, Blackgrass [13, 16]: 30; Plant response rating, Foxtail, Giant [14, 16]: 10
Cc1cc(C)c(C2=NOC(C(C)(C)C)C2)cc1NS(=O)(=O)C(F)(F)F (stereo not drawn) [Compound 108] | 40 | 70 | 100 | 70 | 80 | 100 | 0 | 20 | 60 | 80 | 90 | 90 | 100 | 30 | 30 | 20 | 0 | 0 | 0 | 0 | Ragweed plant response rating ([1]; 500 g ai/ha): 80; Galium plant response rating ([3]; 500 g ai/ha): 90; Corn plant response rating (corn (Zea mays); 500 g ai/ha): 50; Wheat plant response rating ([8]; 500 g ai/ha): 70; Kochia plant response rating (kochia (Bassia scoparia) [9]; 500 g ai/ha): 80; Barnyardgrass plant response rating ([10]; 500 g ai/ha): 90; Ryegrass, Italian plant response rating ([11]; 500 g ai/ha): 70; Pigweed plant response rating ([12]; 500 g ai/ha): 60; Blackgrass plant response rating ([13]; 500 g ai/ha): 50; Foxtail, Giant plant response rating ([14]; 500 g ai/ha): 30
Cc1cc(C)c(N(S(=O)(=O)C(F)(F)F)S(=O)(=O)C(F)(F)F)cc1C1=NOC2(CCSCC2)C1 [Compound 114] | 0 | 50 | 80 | 90 | 90 | 100 | 20 | 0 | 10 | 30 | 70 | 70 | 90 | 60 | 10 | 20 | 40 | 60 | 30 | 50 | Ragweed plant response rating ([1]; 500 g ai/ha): 30; Galium plant response rating ([3]; 500 g ai/ha): 90; Corn plant response rating (corn (Zea mays); 500 g ai/ha): 50; Wheat plant response rating ([8]; 500 g ai/ha): 60; Kochia plant response rating (kochia (Bassia scoparia) [9]; 500 g ai/ha): 40; Barnyardgrass plant response rating ([10]; 500 g ai/ha): 70; Ryegrass, Italian plant response rating ([11]; 500 g ai/ha): 40; Pigweed plant response rating ([12]; 500 g ai/ha): 80; Blackgrass plant response rating ([13]; 500 g ai/ha): 50; Foxtail, Giant plant response rating ([14]; 500 g ai/ha): 80
Cc1c(NS(=O)(=O)C(F)(F)F)cc(C(=O)N2CC(C)OC(C)C2)c(C)c1F (stereo not drawn) [Compound 116] | 90 | 30 | 90 | 90 | 60 | 90 | 0 | 10 | 100 | 90 | 100 | 40 | 90 | 60 | 30 | 50 | 60 | 60 | 0 | 0 | Ragweed plant response rating ([1]; 500 g ai/ha): 90; Galium plant response rating ([3]; 500 g ai/ha): 90; Corn plant response rating (corn (Zea mays); 500 g ai/ha): 80; Wheat plant response rating ([8]; 500 g ai/ha): 80; Kochia plant response rating (kochia (Bassia scoparia) [9]; 500 g ai/ha): 70; Barnyardgrass plant response rating ([10]; 500 g ai/ha): 90; Ryegrass, Italian plant response rating ([11]; 500 g ai/ha): 80; Pigweed plant response rating ([12]; 500 g ai/ha): 80; Blackgrass plant response rating ([13]; 500 g ai/ha): 40; Foxtail, Giant plant response rating ([14]; 500 g ai/ha): 80
COC1CCCN(C(=O)c2cc(NS(=O)(=O)C(F)(F)F)c(Cl)cc2C)C1 (stereo not drawn) [Compound 146] | – | 90 | 100 | – | 100 | 100 | – | 60 | 70 | 80 | 80 | 90 | 100 | – | – | – | – | – | – | – | Plant response rating, Ragweed ([1]; 125 g ai/ha): 60; Ragweed plant response rating ([1]; 500 g ai/ha): 90; Plant response rating, Galium ([3]; 125 g ai/ha): 90; Galium plant response rating ([3]; 500 g ai/ha): 90; Plant response rating, Corn (corn (Zea mays); 125 g ai/ha): 10; Corn plant response rating (corn (Zea mays); 500 g ai/ha): 20; Plant response rating, Wheat ([8]; 125 g ai/ha): 50; Wheat plant response rating ([8]; 500 g ai/ha): 60; Plant response rating, Kochia (kochia (Bassia scoparia) [9]; 125 g ai/ha): 40; Kochia plant response rating (kochia (Bassia scoparia) [9]; 500 g ai/ha): 50; Plant response rating, Barnyardgrass ([10]; 125 g ai/ha): 40; Barnyardgrass plant response rating ([10]; 500 g ai/ha): 80; Plant response rating, Ryegrass, Italian ([11]; 125 g ai/ha): 30; Ryegrass, Italian plant response rating ([11]; 500 g ai/ha): 70; Plant response rating, Pigweed ([12]; 125 g ai/ha): 50; Pigweed plant response rating ([12]; 500 g ai/ha): 80; Plant response rating, Blackgrass ([13]; 125 g ai/ha): 0; Blackgrass plant response rating ([13]; 500 g ai/ha): 20; Plant response rating, Foxtail, Giant ([14]; 125 g ai/ha): 20; Foxtail, Giant plant response rating ([14]; 500 g ai/ha): 90

From US20230278972A1, “SUBSTITUTED HALOALKYL SULFONANILIDE HERBICIDES” (FMC Corporation, priority 2020, published 2023)
